Assay results taken from PubChem BioAssay (NCI).
Where “and” joins values, the source holds several entries; their conditions need not be identical. Identical values can stand only once.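 Exposure lasted 48 hours, with cells grown in 96-well plates and compounds tested at five concentrations. At the GI50, growth is halved. TGI denotes the concentration required for complete inhibition of growth.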

Columns and labels:
Assay in all cases: NCI-60 cell line screen, 48 h
UACC-62 melanoma = test system: UACC-62 melanoma
CAKI-1 renal = test system: CAKI-1 renal
MDA-MB-231 breast = test system: MDA-MB-231 breast
SK-MEL-2 melanoma = test system: SK-MEL-2 melanoma
RXF 393 renal = test system: RXF 393 renal
IGROV1 ovarian = test system: IGROV1 ovarian
HCC-2998 colon = test system: HCC-2998 colon
T-47D breast = test system: T-47D breast
COLO 205 colon = test system: COLO 205 colon
MDA-MB-435 = test system: MDA-MB-435

| SMILES | GI50 (UACC-62 melanoma) | TGI (UACC-62 melanoma) | GI50 (CAKI-1 renal) | TGI (CAKI-1 renal) | GI50 (MDA-MB-231 breast) | TGI (MDA-MB-231 breast) | GI50 (SK-MEL-2 melanoma) | TGI (SK-MEL-2 melanoma) | GI50 (RXF 393 renal) | TGI (RXF 393 renal) | GI50 (IGROV1 ovarian) | TGI (IGROV1 ovarian) | GI50 (HCC-2998 colon) | TGI (HCC-2998 colon) | GI50 (T-47D breast) | TGI (T-47D breast) | GI50 (COLO 205 colon) | TGI (COLO 205 colon) | GI50 (MDA-MB-435) | TGI (MDA-MB-435) |
| --- | --- | --- | --- | --- | --- | --- | --- | --- | --- | --- | --- | --- | --- | --- | --- | --- | --- | --- | --- | --- |
| O=[N+]([O-])c1cccc(C2CC(c3ccccc3)=Nc3ccccc3S2)c1 (centres undefined) | 12.1 µM | 44.1 µM | 21.8 µM | > 100 µM | 12.9 µM | 33.6 µM | 21 µM | 43.6 µM | 17.2 µM | 36.6 µM | 16.1 µM | 35.6 µM | 16 µM | 31 µM | 16.6 µM | 52.6 µM | 19.2 µM | 41.7 µM | 15700 nM | 37.7 µM |
| COc1cc2cc(Oc3ccc(NC(=O)Nc4ccc(Cl)c(Cl)c4)cc3)c(C)nc2cc1OC | 3.33 µM | 19.2 µM | 2.12 µM | 6.65 µM | 2.46 µM | 12 µM | 3 µM | 6.54 µM | 4.28 µM | 16.7 µM | 5.61 µM | 46.1 µM | 5.54 µM | > 100 µM | 2.7 µM | 10.1 µM | 2.75 µM | 6.5 µM | 3090 nM | 16.8 µM |
| COc1ccc(/C(C#N)=C2C=C/C(=N/O)c3ccccc3\2)cc1 | 0.48 µM | 7.47 µM | 0.608 µM | 26.1 µM | 0.27 µM | 0.796 µM | 0.415 µM | 12.3 µM | 0.437 µM | 20.6 µM | 0.523 µM | 17.6 µM | 0.346 µM | 1.44 µM | 13.7 µM | 39.7 µM | 1.34 µM | 3.52 µM | 38.8 nM | 0.179 µM |
| O=S(=O)(c1cnccc1N1CCN(CCO)CC1)N1CCCC1 |  | > 100 µM |  | > 100 µM |  | > 100 µM |  | > 100 µM |  | > 100 µM |  | > 100 µM |  | > 100 µM |  | > 100 µM |  | > 100 µM |  | > 100 µM |
| COC(=O)[C@H]1CCCN1C(=O)[C@H]1CCCN1C(=O)[C@H](Cc1c[nH]c2ccccc12)NC(=S)Nc1cc(C(F)(F)F)cc(C(F)(F)F)c1 | 6.14 µM | > 100 µM | 15 µM | > 100 µM | 2.18 µM | 5.25 µM | 5.34 µM | 27.8 µM | 1.84 µM | 4.71 µM | 6.97 µM | > 100 µM | 2.42 µM | 5.96 µM | 3.72 µM | > 100 µM | 2.08 µM | 4.28 µM | 5600 nM | > 100 µM |
| CCN(CC)Cc1cc2[nH]c3c4ccc(Cl)cc4ncc3c2cc1OC | 15.5 µM and 1.81 µM | 29.4 µM and 3.46 µM | 3.36 µM and 2.3 µM | 9.14 µM and 9.8 µM | 1.83 µM and 1.8 µM | 7.16 µM and 4.51 µM | 7.39 µM and 16.5 µM | 16.6 µM and 31.6 µM | 2.07 µM and 1.68 µM | 4.25 µM and 3.27 µM | 2.13 µM and 3.42 µM | 12.4 µM and 13.6 µM | 2.22 µM and 3.33 µM | 6.79 µM and 13.6 µM | 16.5 µM and 17.4 µM | 31.7 µM and 33.6 µM | 3.69 µM and 1.79 µM | 8.54 µM and 3.26 µM | 1780 nM and 1750 nM | 3.55 µM and 3.4 µM |
| Cn1cc(C2=C(c3cn(CCCCCSC(=N)N)c4ccccc34)C(=O)NC2=O)c2ccccc21 | 3.87 µM | 7.25 µM | 4.03 µM | 7.94 µM | 3.91 µM | 7.49 µM | 3.13 µM | 6.43 µM | 2.55 µM | 5.68 µM | 3.51 µM | 7.93 µM | 3.56 µM | 7.19 µM | 3.46 µM | 9.63 µM | 1.24 µM | 4.68 µM | 1060 nM | 4.07 µM |
| COc1ccc(N(C)c2nc(N)nc3sc4c(c23)CCCC4)cc1 | < 0.01 µM | 15.8 µM | < 0.0137 µM | 15.4 µM | < 0.01 µM | 0.918 µM | 0.0441 µM | 17.2 µM | < 0.01 µM | 20.7 µM | < 0.01 µM | 13 µM | < 0.0146 µM | 12 µM | < 0.01 µM | 30.8 µM | 0.021 µM | 0.0573 µM | < 10 nM |  |
| CN1CSC(=S)N(Cc2ccccc2)C1 | 13.4 µM | 36 µM | 34.6 µM | > 100 µM | 13.6 µM | 37.7 µM | 4.64 µM | 18.2 µM | 11.7 µM | 24 µM | 10.3 µM | 27.5 µM | 71 µM | > 100 µM | 4.78 µM | 23.4 µM | 15 µM | 32.3 µM | 3580 nM | 19.8 µM |
| CN(Cc1cnc2nc(N)nc(N)c2n1)c1ccc(C(=O)NC(CCC(=O)O)C(=O)O)cc1Br (centres undefined) | < 0.01 µM | 7.35 µM | < 0.01 µM |  | 6.02 µM | > 100 µM | < 0.01 µM | > 100 µM | 0.459 µM | 5.01 µM | < 0.01 µM | 1.01 µM | < 0.01 µM |  | 0.113 µM | > 100 µM | < 0.0215 µM | 17.4 µM | < 10 nM | 5.15 µM |
| c1ccc2c3c([nH]c2c1)C(c1ccc(C2NCCc4c2[nH]c2ccccc42)cc1)NCC3 (centres undefined) | 0.749 µM | 2.13 µM | 1.66 µM | 4.03 µM | 0.296 µM | 0.936 µM | 1.7 µM | 3.57 µM | 1.31 µM | 2.67 µM | 1.34 µM | 2.83 µM | 0.274 µM | 1.28 µM | 1.31 µM | 3.06 µM | 0.204 µM | 0.459 µM | 359 nM | 1.27 µM |
| CC[C@H](C)[C@H](NC(=O)[C@H]1CCCCN1C)C(=O)N(C)[C@H](C[C@@H](OC(C)=O)c1nc(C(=O)N[C@@H](Cc2ccccc2)C[C@H](C)C(=O)O)cs1)C(C)C |  | > 16.5 µM | 0.00197 µM |  | 0.00201 µM and 0.00165 µM | > 16.5 µM | 0.0007 µM |  | 0.00165 µM | > 16.5 µM | 0.00604 µM and 0.00165 µM | > 16.5 µM | 0.0013 µM and 0.00165 µM | > 16.5 µM | > 16.5 µM | > 16.5 µM | 0.000394 µM | 0.00275 µM | 0.0749 nM and < 1.65 nM | 0.000386 µM and < 0.00165 µM |
| O=C(Nc1nc2ccccc2s1)Nc1ccc([N+](=O)[O-])cc1Cl | 3.1 µM | 8.94 µM | 6.25 µM | 16.2 µM | 3.21 µM | 8.59 µM | 12.7 µM | 26.9 µM | 1.59 µM | 3.28 µM | 4.71 µM | 10.4 µM | 5.65 µM | 25 µM | 2.86 µM | 11.7 µM | 10.3 µM | 32.9 µM | 3560 nM | 14.2 µM |
| CN(CC(=O)N(Cc1ccc(C2CCCCC2)cc1)c1ccc(C(=O)O)cc1)S(=O)(=O)c1c(F)c(F)c(F)c(F)c1F | 1.92 µM | 3.46 µM | 1.93 µM | 4.31 µM | 1.9 µM | 3.51 µM | 2.06 µM | 3.68 µM | 1.93 µM | 3.37 µM | 2.08 µM | 4.46 µM | 1.76 µM | 3.22 µM | 2.09 µM | 4.83 µM | 1.97 µM | 3.95 µM | 1750 nM | 3.19 µM |
| CCOC(=O)COc1ccc2c(C)cc(=O)oc2c1 |  | > 100 µM |  | > 100 µM |  | > 100 µM |  | > 100 µM |  | > 100 µM |  | > 100 µM |  | > 100 µM |  | > 100 µM |  | > 100 µM |  | > 100 µM |
| CC1=C(C(=O)Nc2ccc(Cl)c(C(=O)OC(C)C)c2)SCCO1 |  | 93.2 µM |  | > 100 µM |  | > 100 µM |  | 75.4 µM |  | > 97.7 µM |  | > 81.1 µM |  | 75 µM |  | > 100 µM |  | 60 µM |  | > 100 µM |
| COc1nnc2ccc(N3CCC(c4ccc(OCCN5CCN(C)C(=O)[C@H]5C)cc4)CC3)nn12 | < 0.0153 µM | > 56.9 µM | 0.0237 µM | > 100 µM | 0.0751 µM | > 100 µM | 0.678 µM | > 100 µM | 3.85 µM | > 100 µM | 0.0876 µM | > 100 µM | 0.138 µM | 16.1 µM | 0.0618 µM | > 69.2 µM | 0.0553 µM | > 100 µM | 56.9 nM | > 100 µM |
| N#CC1c2ccccc2C=CN1C(=O)N(c1ccccc1)c1ccccc1 (centres undefined) | 2.13 µM | 5.57 µM | 1.64 µM | 3.63 µM | 2.94 µM | 8.35 µM | 3.97 µM | 13.6 µM | 1.73 µM | 3.2 µM | 1.76 µM | 3.66 µM | 11.1 µM | 23.9 µM | 1.87 µM | 4.45 µM | 1.83 µM | 3.43 µM | 1740 nM | 3.81 µM |
| COc1cc(-c2nn(-c3cccc(NC(=O)c4ccc(Cl)c(C(F)(F)F)c4)c3)cc2-c2ccncc2)ccc1Cl | 1.6 µM | > 32.5 µM | 2.34 µM | > 32.5 µM | 1.44 µM | > 32.5 µM | 1.42 µM | 10.1 µM | 2.01 µM | > 24.6 µM | 1.78 µM | > 32.5 µM | 9.89 µM | > 32.5 µM | 1.3 µM | > 32.5 µM | 3.5 µM | 17.6 µM | 658 nM | 1.79 µM |
| C=CC(=O)N1CC2(CC(n3nc(-c4ccc5c(cnn5C)c4)c(-c4c(Cl)c(C)cc5[nH]ncc45)c3C)C2)C1 | 1.94 µM | 4.04 µM | 3.95 µM | 14.3 µM | 2.54 µM | 6.62 µM | 1.91 µM | 3.63 µM | 1.6 µM | 3.49 µM | 2.76 µM | 8.18 µM | 1.85 µM | 3.36 µM | 3.97 µM | 19.3 µM | 2.1 µM | 4.17 µM | 2720 nM | 7.65 µM |
